Toxic doses and inconclusive results are not listed. Cut-off read from the data, not from the text of the source: active = T/C of 150% or more; inactive = T/C below 125%.
Test system: L1210 leukemia ip in BDF1 mice, survival T/C
Test: NCI In Vivo Anticancer Drug Screen. Data for tumor model L1210 Leukemia (intraperitoneal) in B6D2F1 (BDF1) mice
Conditions: endpoint: mean survival time, higher = longer survival
Method in brief: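 Each compound was tested against a transplantable tumor grown in mice. The endpoint was survival, with treated animals benchmarked against vehicle controls as a simple ratio.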

[1] = dose: 100.0 mg/kg/injection, schedule: Q04DX002 (ip), vehicle: saline with Tween-80
[2] = dose: 200.0 mg/kg/injection, schedule: Q04DX002 (ip), vehicle: saline with Tween-80
[3] = dose: 400.0 mg/kg/injection, schedule: Q04DX002 (ip), vehicle: saline with Tween-80
[4] = dose: 100.0 mg/kg/injection, schedule: Q04DX002 (ip), vehicle: Klucel (hydroxypropylcellulose) (HPC)
[5] = dose: 200.0 mg/kg/injection, schedule: Q04DX002 (ip), vehicle: Klucel (hydroxypropylcellulose) (HPC)
[6] = dose: 400.0 mg/kg/injection, schedule: Q04DX002 (ip), vehicle: Klucel (hydroxypropylcellulose) (HPC)
[7] = dose: 100.0 mg/kg/injection, schedule: Q01DX001 (ip), vehicle: carboxymethylcellulose (CMC)
[8] = dose: 200.0 mg/kg/injection, schedule: Q01DX001 (ip), vehicle: carboxymethylcellulose (CMC)
[9] = dose: 400.0 mg/kg/injection, schedule: Q01DX001 (ip), vehicle: carboxymethylcellulose (CMC)
[10] = dose: 100.0 mg/kg/injection, schedule: Q01DX009 (ip), vehicle: Klucel (hydroxypropylcellulose) (HPC)
[11] = dose: 200.0 mg/kg/injection, schedule: Q01DX009 (ip), vehicle: Klucel (hydroxypropylcellulose) (HPC)
[12] = dose: 400.0 mg/kg/injection, schedule: Q01DX009 (ip), vehicle: Klucel (hydroxypropylcellulose) (HPC)
[13] = dose: 100.0 mg/kg/injection, schedule: Q01DX009 (ip), vehicle: saline with Tween-80
[14] = dose: 200.0 mg/kg/injection, schedule: Q01DX009 (ip), vehicle: saline with Tween-80
[15] = dose: 100.0 mg/kg/injection, schedule: Q04DX002 (ip), vehicle: saline
[16] = dose: 200.0 mg/kg/injection, schedule: Q04DX002 (ip), vehicle: saline
[17] = dose: 400.0 mg/kg/injection, schedule: Q04DX002 (ip), vehicle: saline
[18] = dose: 100.0 mg/kg/injection, schedule: Q01DX001 (ip), vehicle: saline with Tween-80
[19] = dose: 200.0 mg/kg/injection, schedule: Q01DX001 (ip), vehicle: saline with Tween-80
[20] = dose: 400.0 mg/kg/injection, schedule: Q01DX001 (ip), vehicle: saline with Tween-80
[21] = dose: 100.0 mg/kg/injection, schedule: Q01DX001 (ip), vehicle: saline
[22] = dose: 200.0 mg/kg/injection, schedule: Q01DX001 (ip), vehicle: saline
[23] = dose: 400.0 mg/kg/injection, schedule: Q01DX001 (ip), vehicle: saline
[24] = dose: 100.0 mg/kg/injection, schedule: Q01DX001 (ip), vehicle: Klucel (hydroxypropylcellulose) (HPC)
[25] = dose: 200.0 mg/kg/injection, schedule: Q01DX001 (ip), vehicle: Klucel (hydroxypropylcellulose) (HPC)

Measured: T/C

CCCC(=O)N1CCCCCC1
inactive: [1] 92 % of control | [2] 113 % of control | [3] 95 % of control

CC(=O)C1(Cl)CCC(C(C)(C)C)CC1 (stereo unspecified)
inactive: [1] 111 % of control | [2] 103 % of control | [3] 103 % of control

OC(c1ccc(Cl)cc1)c1nc2ccccc2[nH]1 (stereo unspecified)
inactive: [4] 100 % of control | [5] 100 % of control | [6] 103 % of control

CC(=O)N1C(=O)C2(Nc3ccccc3N2)c2ccccc21
inactive: [7] 87 % of control | [8] 87 % of control | [9] 96 % of control

Cc1ccccc1SC(=O)Nc1ccc([N+](=O)[O-])cc1Cl
inactive: [10] 96 % of control | [11] 94 % of control | [12] 94 % of control

Nc1cc(Cl)cc2c1-c1c(Cl)cc(Cl)cc1C2
inactive: [10] 102 % of control | dose: 100.0 mg/kg/injection, schedule: Q04DX003 (ip), vehicle: Klucel (hydroxypropylcellulose) (HPC) 96 % of control | dose: 200.0 mg/kg/injection, schedule: Q04DX003 (ip), vehicle: Klucel (hydroxypropylcellulose) (HPC) 104 % of control | [12] 102 % of control | dose: 400.0 mg/kg/injection, schedule: Q04DX003 (ip), vehicle: Klucel (hydroxypropylcellulose) (HPC) 104 % of control

CC(C)=C1N=C(c2ccccc2)OC1=O
inactive: [4] 97 % of control | [5] 111 % of control | [6] 111 % of control

O=C(O)C1Cc2c([nH]c3ccccc23)C(c2ccccc2)N1 (stereo unspecified)
inactive: [13] 96 % of control | dose: 100.0 mg/kg/injection, schedule: Q04DX003 (ip), vehicle: saline with Tween-80 104 % of control | [14] 94 % of control | dose: 200.0 mg/kg/injection, schedule: Q04DX003 (ip), vehicle: saline with Tween-80 102 % of control | dose: 400.0 mg/kg/injection, schedule: Q01DX009 (ip), vehicle: saline with Tween-80 97 % of control | dose: 400.0 mg/kg/injection, schedule: Q04DX003 (ip), vehicle: saline with Tween-80 96 % of control

CNc1ccccc1C(=O)N/N=C/c1ccc(OC)cc1
inactive: [15] 102 % of control | [16] 99 % of control | [17] 102 % of control

CC1(C)C2CCC(I)(C2)C1I (stereo unspecified)
inactive: [18] 93 % of control | [19] 90 % of control | [20] 93 % of control

CC12CC(c3ccccc3)C(C)(C(c3ccccc3)=C1c1ccccc1)C2(C)O (stereo unspecified)
inactive: [18] 93 % of control | [19] 100 % of control | [20] 88 % of control

CCCCCCCCCCCCSC(=O)Nc1ccc(C(=O)OCC)cc1
inactive: [4] 95 % of control | [5] 116 % of control | [6] 92 % of control

NC(=S)NN=C1CCSCC1
inactive: dose: 8.4 mg/kg/injection, schedule: Q01DX Z (ip), vehicle: methylcellulose (MC) 96 % of control | dose: 14.0 mg/kg/injection, schedule: Q01DX Z (ip), vehicle: methylcellulose (MC) 92 % of control | dose: 23.0 mg/kg/injection, schedule: Q01DX Z (ip), vehicle: methylcellulose (MC) 98 % of control | dose: 39.0 mg/kg/injection, schedule: Q01DX Z (ip), vehicle: methylcellulose (MC) 98 % of control

CCOC(=O)C1(CCOC(C)=O)CCCCC1=O (stereo unspecified)
inactive: [7] 93 % of control | [8] 93 % of control | [9] 102 % of control

COc1cccc(C2CCCCC2O)c1 (stereo unspecified)
inactive: dose: 50.0 mg/kg/injection, schedule: Q01DX009 (ip), vehicle: saline with Tween-80 90 % of control | [13] 93 % of control | [14] 96 % of control

CCC#CC#CCC
inactive: [21] 97 % of control | dose: 100.0 mg/kg/injection, schedule: Q01DX009 (ip), vehicle: saline 96 % of control | [22] 108 % of control | [23] 112 % of control

COc1ccc(N=Cc2ccc(OC(=O)c3ccccc3)c(OC)c2)cc1
inactive: [1] 100 % of control | [2] 100 % of control | [3] 93 % of control

C[N+](C)(C)CCSc1ccc2c3c(cccc13)C(=O)c1ccccc1-2
inactive: dose: 12.5 mg/kg/injection, schedule: Q04DX002 (ip), vehicle: saline 107 % of control | dose: 25.0 mg/kg/injection, schedule: Q04DX002 (ip), vehicle: saline 104 % of control | dose: 50.0 mg/kg/injection, schedule: Q04DX002 (ip), vehicle: saline 86 % of control

Cc1cccc(NC(=O)NCCCl)c1C
inactive: [7] 91 % of control | [8] 91 % of control | [9] 93 % of control

CN(C)CCCC1c2ccccc2Oc2ccc(C(F)(F)F)cc21 (stereo unspecified)
inactive: dose: 0.78 mg/kg/injection, schedule: Q04DX003 (ip), vehicle: saline 103 % of control | dose: 1.56 mg/kg/injection, schedule: Q04DX003 (ip), vehicle: saline 102 % of control | dose: 3.12 mg/kg/injection, schedule: Q04DX003 (ip), vehicle: saline 105 % of control | dose: 6.25 mg/kg/injection, schedule: Q04DX003 (ip), vehicle: saline 105 % of control | dose: 12.5 mg/kg/injection, schedule: Q04DX003 (ip), vehicle: saline 102 % of control | dose: 25.0 mg/kg/injection, schedule: Q04DX003 (ip), vehicle: saline 117 % of control | dose: 50.0 mg/kg/injection, schedule: Q01DX009 (ip), vehicle: saline 100 % of control

CCCCCCCCCC[Si](C)(C)C
inactive: [21] 100 % of control | [22] 97 % of control | [23] 100 % of control

Cn1c(Cl)c(C=O)c2ccccc21
inactive: dose: 50.0 mg/kg/injection, schedule: Q04DX002 (ip), vehicle: Klucel (hydroxypropylcellulose) (HPC) 90 % of control | [4] 93 % of control | [5] 97 % of control

CN1CCN(C(=O)C2CCCCC2C(=O)O)CC1 (stereo unspecified)
inactive: [15] 107 % of control | [16] 107 % of control | [17] 96 % of control

COc1ccc(-n2c(=O)c(N=Nc3ccc(Br)cc3)c(O)n(-c3ccccc3OC)c2=S)cc1
inactive: dose: 50.0 mg/kg/injection, schedule: Q01DX001 (ip), vehicle: Klucel (hydroxypropylcellulose) (HPC) 106 % of control | [24] 103 % of control | [25] 103 % of control

CCCCCCCCCCCCCCCCOc1ccc(S(=O)(=O)N2CCOCC2)cc1[N+](=O)[O-]
inactive: dose: 75.0 mg/kg/injection, schedule: Q04DX003 (ip), vehicle: saline 103 % of control | [24] 97 % of control | dose: 150.0 mg/kg/injection, schedule: Q04DX003 (ip), vehicle: saline 93 % of control | [25] 104 % of control | dose: 300.0 mg/kg/injection, schedule: Q04DX003 (ip), vehicle: saline 95 % of control | dose: 400.0 mg/kg/injection, schedule: Q01DX001 (ip), vehicle: Klucel (hydroxypropylcellulose) (HPC) 104 % of control

CCN(CC)c1cccc(OC(=O)NC)c1
inactive: dose: 0.75 mg/kg/injection, schedule: Q01DX009 (ip), vehicle: saline with Tween-80 91 % of control | dose: 1.5 mg/kg/injection, schedule: Q01DX009 (ip), vehicle: saline with Tween-80 94 % of control | dose: 3.0 mg/kg/injection, schedule: Q01DX009 (ip), vehicle: saline with Tween-80 94 % of control

CC(=O)NC(N)=NCCCC(N)C(=O)O (stereo unspecified)
inactive: dose: 75.0 mg/kg/injection, schedule: Q04DX003 (ip), vehicle: Klucel (hydroxypropylcellulose) (HPC) 91 % of control | dose: 150.0 mg/kg/injection, schedule: Q04DX003 (ip), vehicle: Klucel (hydroxypropylcellulose) (HPC) 94 % of control | dose: 300.0 mg/kg/injection, schedule: Q04DX003 (ip), vehicle: Klucel (hydroxypropylcellulose) (HPC) 94 % of control

Cc1ccc(C)c(NC(=O)Nc2ccc(S(N)(=O)=O)cc2)c1
inactive: [10] 91 % of control | [11] 92 % of control | [12] 96 % of control

CC(=O)OC1CCC2(C)C(=CC=C3C2CCC2(C)C(C(C)=O)CCC32)C1 (stereo unspecified)
inactive: [4] 86 % of control | [5] 110 % of control | [6] 104 % of control

Reference: PubChem BioAssay AID248 (DTP/NCI, 2004)
